Data: patent US20240207274A1, “Larotrectinib and moderate CYP3A4 inducer” (Bayer Consumer Care AG, priority 2022, published 2024)
“Also recorded” adds a separate entry of the source. Where two headings read alike, the source gives them in different places.

What was measured:
[1] = target: CYP3A4 (Homo sapiens, UniProt P08684); settings: following oral administration; cited from earlier work
[2] = Observed plasma concentrations of larotrectinib, single oral dose 100 mg alone and with itraconazole or rifampicin; format: in vivo, human; settings: for Ratio AUC / Ratio Cmax: Observed, single oral dose 100 mg larotrectinib
[3] = tested on: CYP Enzymes; settings: moderate inducer of the CYP named in the cell; FDA list filtered for moderate CYP3A4 inducers; cenobamate classification based on 200 mg daily dose; cited from earlier work
[4] = tested on: Transporter Systems; settings: substrate of the transporter named in the cell; FDA list; cited from earlier work
[5] = tested on: CYP3A4; settings: classification of the drugs included in the PBPK study; cited from earlier work
[6] = tested on: CYP3A4; settings: cited from earlier work
[7] = plus itraconazole (200 mg QD, 5th day of 7) / control, healthy subjects
[8] = plus rifampicin (600 mg QD, 10th day of 11) / control
[9] = coadministration of larotrectinib with rifampicin 600 mg QD

CYP3A4 (Homo sapiens, UniProt P08684), sequence (P08684 whole entry): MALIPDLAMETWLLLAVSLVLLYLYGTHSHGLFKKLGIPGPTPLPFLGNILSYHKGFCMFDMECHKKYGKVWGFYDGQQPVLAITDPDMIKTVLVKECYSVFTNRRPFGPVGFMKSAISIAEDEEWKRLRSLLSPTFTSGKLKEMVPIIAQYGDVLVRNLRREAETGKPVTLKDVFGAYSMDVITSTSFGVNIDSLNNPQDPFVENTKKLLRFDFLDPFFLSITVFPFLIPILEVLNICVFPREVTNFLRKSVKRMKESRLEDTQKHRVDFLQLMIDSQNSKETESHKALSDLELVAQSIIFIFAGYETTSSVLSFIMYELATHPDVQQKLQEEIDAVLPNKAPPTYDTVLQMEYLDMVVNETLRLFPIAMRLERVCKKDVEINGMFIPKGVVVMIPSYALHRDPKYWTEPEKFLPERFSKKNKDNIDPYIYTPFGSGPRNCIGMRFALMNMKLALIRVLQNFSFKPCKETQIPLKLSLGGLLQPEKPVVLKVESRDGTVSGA

## O=C(Nc1cnn2ccc(N3CCC[C@@H]3c3cc(F)ccc3F)nc12)N1CC[C@H](O)C1 [larotrectinib]
[1]
  metabolism: metabolized by CYP3A4
[2]; [7]
  Ratio AUC: 4.31
  Ratio Cmax: 2.81
[2]; [8]
  Ratio AUC: 0.19
  Ratio Cmax: 0.29
[2]; [9]
  observed reduction in exposure, AUC: 81%
  observed reduction in exposure, Cmax: 71%

## NC(=O)O[C@@H](Cn1ncnn1)c1ccccc1Cl [cenobamate]
[3]
  CYP Mod IND: CYP3A4

## COc1ccccc1Oc1c(NS(=O)(=O)c2ccc(C(C)(C)C)cc2)nc(-c2ncccn2)nc1OCCO [bosentan]
[4]
  TRNSP SUB: OATP1B1;; also recorded: OATP1B3

## OC(Cn1cncn1)(Cn1cncn1)c1ccc(F)cc1F [Fluconazole]
[5]
  CYP3A4 Effect: Moderate CYP3A4 inhibitor

## CCC(C)n1ncn(-c2ccc(N3CCN(c4ccc(OCC5COC(Cn6cncn6)(c6ccc(Cl)cc6Cl)O5)cc4)CC3)cc2)c1=O (centres unmarked) [Itraconazole]
[5]
  CYP3A4 Effect: Strong CYP3A4 inhibitor

## CCC1(c2ccccc2)C(=O)NC(=O)NC1=O [phenobarbital]
[6]; listed by FDA
  classification as CYP3A4 inducer: moderate inducer
[6]; listed by a leading clinical support website (UpToDate)
  classification as CYP3A4 inducer: strong inducer

## O=C1Nc2ccc(Cl)cc2[C@@](C#CC2CC2)(C(F)(F)F)O1 [efavirenz]
[5]
  CYP3A4 Effect: Moderate CYP3A4 induced
